Values of other authors as cited in US8080517B2, “Cell-permeable peptide inhibitors of the JNK signal transduction pathway” (Xigen SA, priority 2005, dated 2011).

Columns and labels:
[1] = system: primary embryonic cultures and differentiated PC12 cells; conditions: after trophic withdrawal; also in mice treated with 1-methyl-4-phenyl tetrahydropyridine; cited from earlier work
[2] = system: chick embryonic dorsal root ganglion, sympathetic, ciliary and motor neurons; conditions: cited from earlier work
[3] = transient global ischemia; cited from earlier work

| Compound | neuronal survival [1] | long term-survival of cultured neurons [2] | delayed loss of hippocampal CA1 neurons [3] |
| --- | --- | --- | --- |
| CCSCc1ccc2c(c1)c1c3c(c4c5cc(CSCC)ccc5n5c4c1n2[C@H]1C[C@](O)(C(=O)OC)[C@]5(C)O1)CNC3=O [CEP-1347] | promotes neuronal survival at dosages that inhibit activation of the c-Jun amino-terminal kinases (JNKs) | can promote long term-survival |  |
| N#CC(c1ccnc(NCCc2cccnc2)n1)c1nc2ccccc2s1 (stereo not drawn) [AS601245] |  |  | significant protection against the delayed loss of hippocampal CA1 neurons |
